Earlier results as cited in patent US5698219A, “Nanoemulsion of the oil water type, useful as an ophthalmic vehicle and process for the preparation thereof” (Laboratorios Cusi, S.A., priority 1994, dated 1997).

Details: EP 0 521 799 A1; benzalkonium chloride at 0.02% (w/v)

Molecule	preservative effectiveness when used individually
benzalkonium chloride	lack of effectiveness
C[CH2][Hg][S]c1ccccc1C(=O)[O-].[Na+] [thimerosal]	lack of effectiveness
